In this test the test system is CD2F1 mice, L1210 leukemia ip, survival T/C. The test is described as follows: NCI In Vivo Anticancer Drug Screen. Data for tumor model L1210 Leukemia (intraperitoneal) in CD2F1 (CDF1) mice. The settings on record: endpoint: mean survival time, higher = longer survival. Put shortly:
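Activity against a transplanted murine tumor was judged by comparing the compound group with a vehicle group. The outcome in the treated animals was divided by that in the controls.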

Where [1] appears, read: dose: 100.0 mg/kg/injection, schedule: Q04DX002 (ip), vehicle: saline with Tween-80.
Where [2] appears, read: dose: 200.0 mg/kg/injection, schedule: Q04DX003 (ip), vehicle: saline with Tween-80.
Setting [3] is: dose: 100.0 mg/kg/injection, schedule: Q01DX001 (ip), vehicle: saline with Tween-80.
Setting [4] is: dose: 400.0 mg/kg/injection, schedule: Q01DX001 (ip), vehicle: saline with Tween-80.
Setting [5] is: dose: 100.0 mg/kg/injection, schedule: Q01DX001 (ip), vehicle: Klucel (hydroxypropylcellulose) (HPC).
[6] abbreviates: dose: 200.0 mg/kg/injection, schedule: Q01DX001 (ip), vehicle: Klucel (hydroxypropylcellulose) (HPC).
Setting [7] is: dose: 400.0 mg/kg/injection, schedule: Q01DX001 (ip), vehicle: Klucel (hydroxypropylcellulose) (HPC).
[8] abbreviates: dose: 25.0 mg/kg/injection, schedule: Q04DX002 (ip), vehicle: saline with Tween-80.

This is an account of results in PubChem BioAssay AID256 (DTP/NCI, 2004).

Values joined by “and” are separate entries in the source; they are usually repeats but may differ in a detail not shown here. Equal entries are not always repeated. Inconclusive results and toxic doses are left out.

For the compound `CC(C)c1ccc2c(c1)CCC(C(Cl)Cl)C2(C)C` (stereo not drawn), the T/C under setting [1] is 95 % of control; the T/C (dose: 200.0 mg/kg/injection, schedule: Q04DX002 (ip), vehicle: saline with Tween-80) was 111 % of control; the T/C (dose: 400.0 mg/kg/injection, schedule: Q04DX002 (ip), vehicle: saline with Tween-80) is 100 % of control.

For the compound `CC(C)(C)C(=O)C(Br)S(=O)(=O)C(Br)(Br)C(=O)C(C)(C)C` (stereo not drawn), the T/C is 95 % of control (dose: 100.0 mg/kg/injection, schedule: Q01DX009 (ip), vehicle: saline with Tween-80); 97 % of control (dose: 200.0 mg/kg/injection, schedule: Q01DX009 (ip), vehicle: saline with Tween-80); 95 % of control (dose: 400.0 mg/kg/injection, schedule: Q01DX009 (ip), vehicle: saline with Tween-80).

For `Nc1ccc(N=Nc2ccc(N(CCCl)CCCl)cc2)cc1`, the T/C (dose: 33.0 mg/kg/injection, schedule: Q01DX001 (ip), vehicle: Klucel (hydroxypropylcellulose) (HPC)) is 96 % of control; the T/C (dose: 66.0 mg/kg/injection, schedule: Q01DX001 (ip), vehicle: Klucel (hydroxypropylcellulose) (HPC)) was 91 % of control; the T/C (dose: 132.0 mg/kg/injection, schedule: Q01DX001 (ip), vehicle: Klucel (hydroxypropylcellulose) (HPC)) is 91 % of control.

Regarding `CN1CCC(CNC(=O)CCCCCCCCC(=O)NCC2(c3ccccc3)CCN(C)CC2)(c2ccccc2)CC1`, the T/C is, setting by setting: (dose: 1.25 mg/kg/injection, schedule: Q04DX003 (ip), vehicle: saline with Tween-80) 95 % of control; (dose: 2.5 mg/kg/injection, schedule: Q04DX003 (ip), vehicle: saline with Tween-80) 94 % of control.

`N#Cc1cnn(-c2ccc([N+](=O)[O-])cc2)c1N`: the T/C (dose: 100.0 mg/kg/injection, schedule: Q04DX003 (ip), vehicle: saline with Tween-80) is 111 % of control; the T/C under setting [2] was 100 % of control; the T/C (dose: 400.0 mg/kg/injection, schedule: Q04DX003 (ip), vehicle: saline with Tween-80) is 100 % of control.

`Cc1cccc(CN(C)C)n1`: where the note is “dose: 100.0 mg/kg/injection, schedule: Q04DX002 (ip), vehicle: saline”, the T/C is 105 % of control.

For the compound `N#Cc1cc(Cl)c(OCc2ccccc2)c(Cl)c1`, the T/C by setting is: under setting [3], 87 % of control; under setting [4], 101 % of control.

In the case of `CC(C)(C)SC(=O)C1(C)OC1c1ccc([N+](=O)[O-])cc1` (stereo not drawn), the T/C under setting [5] was 97 % of control, the T/C under setting [6] was 94 % of control and the T/C under setting [7] is 97 % of control.

As to `C=CCS(=O)(=O)Cc1cccc(C)c1`, the T/C was 93 % of control under setting [5], 107 % of control under setting [6] and 101 % of control under setting [7].

For the compound `Oc1ccc(CCNCc2cc3c(cc2Br)OCO3)cc1`, the T/C was 104 % of control under setting [3]; 96 % of control (dose: 200.0 mg/kg/injection, schedule: Q01DX001 (ip), vehicle: saline with Tween-80); 104 % of control under setting [4].

`CCN(CC)C1=C(Cl)C(=O)C(=O)c2cccnc21`: the T/C (dose: 9.4 mg/kg/injection, schedule: Q01DX009 (ip), vehicle: saline) is 101 % of control.

Consider `NC1=NCN2C(=N1)OC1C(O)C(CO)OC12` (stereo not drawn), for which the T/C is 94 % of control and 106 % of control (dose: 1.56 mg/kg/injection, schedule: Q01DX009 (ip), vehicle: saline); 91 % of control and 102 % of control (dose: 3.12 mg/kg/injection, schedule: Q01DX009 (ip), vehicle: saline); 91 % of control and 103 % of control (dose: 6.25 mg/kg/injection, schedule: Q01DX009 (ip), vehicle: saline); 91 % of control (dose: 12.5 mg/kg/injection, schedule: Q01DX009 (ip), vehicle: saline); 91 % of control and 100 % of control (dose: 25.0 mg/kg/injection, schedule: Q01DX009 (ip), vehicle: saline); 91 % of control and 97 % of control (dose: 50.0 mg/kg/injection, schedule: Q01DX009 (ip), vehicle: saline). For the same compound, the T/C by setting is: (dose: 100.0 mg/kg/injection, schedule: Q01DX009 (ip), vehicle: saline) 92 % of control and 96 % of control; (dose: 200.0 mg/kg/injection, schedule: Q01DX009 (ip), vehicle: saline) 88 % of control and 100 % of control.

`CCCCCC(C)N` (stereo not drawn): the T/C is, setting by setting: (dose: 12.5 mg/kg/injection, schedule: Q01DX009 (ip), vehicle: saline sonified) 101 % of control; (dose: 12.5 mg/kg/injection, schedule: Q04DX003 (ip), vehicle: saline) 104 % of control; (dose: 25.0 mg/kg/injection, schedule: Q01DX009 (ip), vehicle: saline sonified) 98 % of control; (dose: 25.0 mg/kg/injection, schedule: Q04DX003 (ip), vehicle: saline) 103 % of control; (dose: 50.0 mg/kg/injection, schedule: Q01DX009 (ip), vehicle: saline sonified) 107 % of control; (dose: 50.0 mg/kg/injection, schedule: Q04DX003 (ip), vehicle: saline) 97 % of control.

Consider `O=C1CC2CCCCC2CO1` (stereo not drawn), for which, where the note is “dose: 75.0 mg/kg/injection, schedule: Q01DX001 (ip), vehicle: saline”, the T/C was 160 % of control.

Take `CC1(OO)OOC(=O)C1(C)C` (stereo not drawn): the T/C by setting is: (dose: 6.25 mg/kg/injection, schedule: Q04DX002 (ip), vehicle: saline with Tween-80) 90 % of control; (dose: 12.5 mg/kg/injection, schedule: Q04DX002 (ip), vehicle: saline with Tween-80) 93 % of control; under setting [8], 96 % of control.

Consider `CCCCNC(=O)C1CC2c3c(Br)ccc4c3C(CC2N(C)C1)CN4C(C)=O` (stereo not drawn), for which the T/C by setting is: (dose: 50.0 mg/kg/injection, schedule: Q04DX003 (ip), vehicle: saline with Tween-80) 86 % of control; under setting [2], 91 % of control.

For the compound `O=[N+]([O-])c1ccc2cn[nH]c2c1`, the T/C was 92 % of control (dose: 100.0 mg/kg/injection, schedule: Q01DX001 (ip), vehicle: alcohol); 98 % of control (dose: 200.0 mg/kg/injection, schedule: Q01DX001 (ip), vehicle: alcohol); 93 % of control (dose: 400.0 mg/kg/injection, schedule: Q01DX001 (ip), vehicle: alcohol).

For `COc1c(NC(=O)Nc2ccccc2Cl)cccc1[N+](=O)[O-]`, the T/C under setting [8] was 87 % of control; the T/C (dose: 50.0 mg/kg/injection, schedule: Q04DX002 (ip), vehicle: saline with Tween-80) is 90 % of control; the T/C under setting [1] is 90 % of control.

`Oc1cc2c3c(c1)c1cc4c(cc1c[n+]3CC2)OCO4`: the T/C is 115 % of control (dose: 3.13 mg/kg/injection, schedule: Q01DX009 (ip), vehicle: other); 124 % of control (dose: 3.13 mg/kg/injection, schedule: Q01DX009 (ip), vehicle: water); 122 % of control (dose: 12.5 mg/kg/injection, schedule: Q01DX009 (ip), vehicle: water); 115 % of control (dose: 25.0 mg/kg/injection, schedule: Q01DX009 (ip), vehicle: other).

Consider `Cc1cc(C)c(SC2c3ccccc3-c3ccccc32)c(C)c1`, for which the T/C by setting is: (dose: 100.0 mg/kg/injection, schedule: Q01DX001 (ip), vehicle: saline) 94 % of control; (dose: 100.0 mg/kg/injection, schedule: Q04DX003 (ip), vehicle: saline) 98 % of control; (dose: 200.0 mg/kg/injection, schedule: Q01DX001 (ip), vehicle: saline) 95 % of control; (dose: 200.0 mg/kg/injection, schedule: Q04DX003 (ip), vehicle: saline) 90 % of control; (dose: 400.0 mg/kg/injection, schedule: Q01DX001 (ip), vehicle: saline) 94 % of control; (dose: 400.0 mg/kg/injection, schedule: Q04DX003 (ip), vehicle: saline) 97 % of control.
